Test results reported in the supplement of paper PMC4862054.
Values joined by “and” are separate entries in the source; they are usually repeats but may differ in a detail not shown here. Equal values may be shown once.

How the values were obtained:
Assay in all cases: normalised viability (% of control), CellTiter-Blue; higher = more viable cells (about 100 = DMSO control)
MDA-MB-453 [1] = conditions: 1000 nM; incubation time: 72 h
Procedure: (§1)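 DSRT, CellTiter-Blue viability, 72 h incubation. Signal is normalised to DMSO and benzethonium chloride controls. Value is the normalised response at dose 7.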

CAL-51 [2] = conditions: 1000 nM; incubation time: 72 h
Procedure: as §1

HDQ-P1 [3] = conditions: 1000 nM; incubation time: 72 h
Procedure: as §1

CAL-148 [4] = conditions: 1000 nM; incubation time: 72 h
Procedure: as §1

DU-4475 [5] = conditions: 1000 nM; incubation time: 72 h
Procedure: as §1

CAL-85-1 [6] = conditions: 1000 nM; incubation time: 72 h
Procedure: as §1

HCC1599 [7] = conditions: 100 nM; incubation time: 72 h
Procedure: (§2)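 DSRT, CellTiter-Blue viability, 72 h incubation. Signal is normalised to DMSO and benzethonium chloride controls. Value is the normalised response at dose 3.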

MDA-MB-468 = conditions: 100 nM; incubation time: 72 h
Procedure: as §2

MDA-MB-231 = conditions: 100 nM; incubation time: 72 h
Procedure: as §2

MDA-MB-453 [8] = conditions: 10 nM; incubation time: 72 h
Procedure: as §2

CAL-51 [9] = conditions: 10 nM; incubation time: 72 h
Procedure: as §2

MFM-223 = conditions: 100 nM; incubation time: 72 h
Procedure: as §2

Hs578T = conditions: 100 nM; incubation time: 72 h
Procedure: as §2

HDQ-P1 [10] = conditions: 10 nM; incubation time: 72 h
Procedure: as §2

CAL-148 [11] = conditions: 10 nM; incubation time: 72 h
Procedure: as §2

BT-474 = conditions: 100 nM; incubation time: 72 h
Procedure: as §2

HCC1937 = conditions: 100 nM; incubation time: 72 h
Procedure: as §2

DU-4475 [12] = conditions: 10 nM; incubation time: 72 h
Procedure: as §2

BT-549 = conditions: 100 nM; incubation time: 72 h
Procedure: as §2

SK-BR-3 = conditions: 100 nM; incubation time: 72 h
Procedure: as §2

CAL-85-1 [13] = conditions: 10 nM; incubation time: 72 h
Procedure: as §2

HCC1143 = conditions: 100 nM; incubation time: 72 h
Procedure: as §2

CAL-120 [14] = conditions: 100 nM; incubation time: 72 h
Procedure: as §2

MDA-MB-436 = conditions: 100 nM; incubation time: 72 h
Procedure: as §2

MDA-MB-453 [15] = conditions: 3000 nM; incubation time: 72 h
Procedure: (§3)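 DSRT, CellTiter-Blue viability, 72 h incubation. Signal is normalised to DMSO and benzethonium chloride controls. Value is the normalised response at dose 8.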

CAL-51 [16] = conditions: 3000 nM; incubation time: 72 h
Procedure: as §3

HDQ-P1 [17] = conditions: 3000 nM; incubation time: 72 h
Procedure: as §3

CAL-148 [18] = conditions: 3000 nM; incubation time: 72 h
Procedure: as §3

DU-4475 [19] = conditions: 3000 nM; incubation time: 72 h
Procedure: as §3

CAL-85-1 [20] = conditions: 3000 nM; incubation time: 72 h
Procedure: as §3

HCC1599 [21] = conditions: incubation time: 72 h
Procedure, shortened: (§4)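 Breast cancer cell lines were treated for 72 h in 384-well format and measured by CellTiter-Blue fluorescence at 560/590 nm. Results were normalised per plate to vehicle (100) and a positive kill control (0). The entry is normalised viability at a single listed concentration of the series.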

CAL-120 [22] = conditions: incubation time: 72 h
Procedure, shortened: as §4

Row | SMILES | normalised viability (MDA-MB-453 [1]) | normalised viability (CAL-51 [2]) | normalised viability (HDQ-P1 [3]) | normalised viability (CAL-148 [4]) | normalised viability (DU-4475 [5]) | normalised viability (CAL-85-1 [6]) | normalised viability (HCC1599 [7]) | normalised viability (MDA-MB-468) | normalised viability (MDA-MB-231) | normalised viability (MDA-MB-453 [8]) | normalised viability (CAL-51 [9]) | normalised viability (MFM-223) | normalised viability (Hs578T) | normalised viability (HDQ-P1 [10]) | normalised viability (CAL-148 [11]) | normalised viability (BT-474) | normalised viability (HCC1937) | normalised viability (DU-4475 [12]) | normalised viability (BT-549) | normalised viability (SK-BR-3) [%] | normalised viability (CAL-85-1 [13]) | normalised viability (HCC1143) | normalised viability (CAL-120 [14]) | normalised viability (MDA-MB-436) | normalised viability (MDA-MB-453 [15]) | normalised viability (CAL-51 [16]) | normalised viability (HDQ-P1 [17]) | normalised viability (CAL-148 [18]) | normalised viability (DU-4475 [19]) | normalised viability (CAL-85-1 [20]) | normalised viability (HCC1599 [21]; 10 nM) | normalised viability (HCC1599 [21]; 1000 nM) [%] | normalised viability (HCC1599 [21]; 10000 nM) | normalised viability (CAL-120 [22]; 10 nM) | normalised viability (CAL-120 [22]; 1000 nM) | normalised viability (CAL-120 [22]; 10000 nM)
1 | C=CC(=O)Nc1cc2c(Nc3ccc(F)c(Cl)c3)ncnc2cc1OCCCN1CCOCC1 [Canertinib] | 33.8% | 101% | 55.4% | 68.6% | 114% | 49.5% | 91.8% | 67.1% | 91.7% | 95% | 109% | 98.3% | 79.4% | 96.6% | 81.9% | 55.7% | 97.4% | 108% | 114% | 21.4 | 85.4% | 90.1% | 81.5% | 102% | 28.2% | 79.9% | 27.5% | 60% | 103% | 34.3% | 96.2% | 106 | 43.9% | 79.9% | 72.5% | 6.63%
2 | O=C(O)C1(C(=O)O)CCC1.[NH2-].[NH2-].[Pt+2] [Carboplatin] | 99.3% | 99.9% | 97.1% | 103% | 97.3% | 81.5% | 92.8% | 98.8% | 92.7% | 103% | 100% | 88% | 96% | 96.6% | 92.4% | 116% | 94.5% | 98.9% | 101% | 91.1 | 87.3% | 86.4% | 88% | 93.3% | 105% | 115% | 86% | 86% | 107% | 87.7% | 94.5% | 90.7 | 87.1% | 87% | 95.4% | 78.3%
3 | Nc1ncn([C@H]2C[C@H](O)[C@@H](CO)O2)c(=O)n1 [Decitabine] | 96% and 103% | 107% and 98.7% | 87.1% and 88.9% | 75.2% and 75% | 76.6% and 89.9% | 78.2% and 89.6% | 108% and 99.9% | 32.4% and 32.1% | 86.7% and 95% | 90.9% and 113% | 112% and 102% | 79% and 95.3% | 85.2% and 99.2% | 109% and 95.9% | 87.3% and 90% | 87.1% and 95.7% | 101% and 108% | 98.1% and 117% | 102% and 98.4% |  | 96% and 100% | 82.4% and 79.1% | 85.2% and 84.4% | 89.6% and 90.8% | 87% and 93.1% | 98.4% and 79.8% | 88.6% and 93.3% | 81.2% and 73.7% | 69.8% and 78.9% | 83% and 88.5% | 112% and 107% |  | 82% and 106% | 88.1% and 89.4% | 85.4% and 89% | 58.3% and 62.3%
